Test results published in patent publication US20200339691A1, “PROTEINACEOUS MOLECULES AND USES THEREFOR” (priority 2018, published 2020).
Where a SMILES comes first, the peptide text is derived from it. The star is where a group is joined. Myristoyl = CCCCCCCCCCCCCC(=O)*

Assays:
PD-1 = experiment: Immunofluorescence of PD-1 in Jurkat T-cells; assay type: cell-based; details: 50 μM, 72 hours, relative to the control
Experimental: 1×10^4 Jurkat T-cells were seeded onto coverslips in 12 well plates with DMEM media. Cells were treated with 50 μM P1, P2, P3 (synthesized in accordance with Example 5) or vehicle (water) for 72 hours. Cells were fixed with 3.7% formaldehyde and permeabilized with 2% Triton-X-100, then probed with a primary mouse antibody to PD-1 directly conjugated to Alexa-Fluor 647. Confocal laser scanning microscopy was used to measure the TNFI, TCFI and Fn/c as described above. At least 20 individual cells were analyzed per sample.

[1] = tested on: PD-L1 acetylated at lysine 263; experiment: Immunofluorescence (confocal) of acetylated PD-L1 in MDA-MB-231 cells, Example 6; assay type: cell-based, human; details: 50 μM, 72 hours
Experimental: (§1) Confocal laser scanning microscopy was employed to investigate the effect of P1, P2 and P3 (synthesized in accordance with Example 5) on the nuclear expression of PD-L1 and acetylated PD-L1 (PDL1-Ac) (FIG. 9).
(§2) 1×10^4 MDA-MB-231 cells were seeded onto coverslips in 12 well plates with DMEM media overnight. Cells were treated with 50 μM P1, P2, P3 or P4 or vehicle (water) for 72 hours. Treated cells were fixed with 3.7% formaldehyde, and then permeabilised by incubating with 1% Triton X-100 for 20 min. Cells were then probed with a rabbit anti-PD-L1 antibody (Santa Cruz Biotechnology) or rabbit anti-acetylated PD-L1 (generated as described above) and visualized with a donkey anti-rabbit AF 488. Cover slips were mounted on glass microscope slides with ProLong Diamond Antifade reagent (Life Technologies). Protein targets were localized using confocal laser scanning microscopy. Single 0.5 μm sections were obtained using a Leica DMI8 microscope using 100× oil immersion lens running LAX software. The final image was obtained by averaging four sequential images of the same section. Digital images were analyzed using ImageJ software as described above.

[2] = tested on: acetylated PD-L1 and p300; experiment: Colocalization (PCC(r)) of acetylated PD-L1 and p300 in MDA-MB-231 cells; assay type: cell-based, human; details: 50 μm
Experimental: The effect of P1, P2, P3 and P4 (synthesized in accordance with Example 5) on p300 localization was examined using confocal laser scanning microscopy. […] Cover slips were mounted on glass microscope slides with ProLong Diamond Antifade reagent (Life Technologies). Protein targets were localized by confocal laser scanning microscopy as described above. TNFI and PCC(r) were calculated using ImageJ software as previously described.

PD-L1 = experiment: Immunofluorescence (confocal) of PD-L1 in MDA-MB-231 cells, Example 6; assay type: cell-based, human; details: 50 μM, 72 hours
Experimental: as §1, §2

[3] = tested on: CD44^hiCD24^lo CSCs in MDA-MB-231 cells; experiment: FACS analysis of CD44^hiCD24^lo cancer stem cells in MDA-MB-231 cells treated with P1 analogues; assay type: cell-based, human; details: 50 μM peptide, 48 hours; for CD44^hiCD24^lo CSCs (%) / COI, Live Single CD44^hiCD24^lo CSCs (Cell Count): n = 1; for Average Inhibition of CSCs (%) / CD44^hiCD24^lo CSCs (%) Repeat 1 / CD44^hiCD24^lo CSCs (%) Repeat 2 / CD44^hiCD24^lo CSCs (%) Repeat 3: n = 3
Experimental: Analogues of P1 (Table 6) were designed and synthesized in accordance with the procedure of Example 5. The ability of these analogues to inhibit cancer stem cells was determined using FACS analysis on MDA-MB-231 cells, which constitutively contain approximately 90% CD44^hiCD24^lo cancer stem cells, treated with the peptides.
(§3) Non-adherent cells were removed during the washing steps.

EHTM2 = experiment: Immunofluorescence of EHTM2 in MDA-MB-231 cells; assay type: cell-based, human; details: 50 μM, 72 hours
Experimental: (§4) Cells were treated with 50 μM P1, P2, P3 or P4 (synthesized in accordance with Example 5) or vehicle (water) for 72 hours. […] Confocal laser scanning microscopy was used to measure the […] and TCFI as described above. At least 20 individual cells were analyzed per sample.

DMNTI = experiment: Immunofluorescence of DMNTI in MDA-MB-231 cells; assay type: cell-based, human; details: 50 μM, 72 hours
Experimental: as §4

induced MCF7 cells = experiment: FACS CSC inhibition in induced MCF7 cells; assay type: cell-based, human; details: induced MCF7 cells (PMA/TGF-β), 50 μM peptide, 48 hours
Experimental: P1 Analogues were synthesized in accordance with the procedure of Example 5. 4×10^4 MDA-MB-231 cells or 1×10^4 induced or non-induced MCF7 cells were seeded in a 12 well plate with 1 mL complete media overnight. Induced MCF7 cells were prepared by stimulating cells with PMA/TGF-β and incubating for 12 hours. Cells were treated with 50 μM test peptide (dissolved in water) for 48 hours. Cells were then washed twice with 1 mL PBS and harvested by trypsinisation. Non-adherent cells were removed during the washing steps. Adherent cells were collected, and were subsequently stained with anti-human CD44, CD24 and Hoechst 33342 antibodies on ice for 30 mins. FACS was performed on BD FACS LSRII to measure the percentage of CD44^hiCD24^lo CSCs by dividing CD44^hiCD24^lo events by total live cell counts (Hoechst negative population) (as described in Fillmore and Kuperwasser (2007) Breast Cancer Res, 9: 303). The percentage of viable cells was calculated by dividing total live cell events by total single cells as described previously (Siemann and Keng (1986), Cancer Res, 46: 3556-3559).

MDA-MB-231 cells = assay type: cell-based, human; details: 50 μM peptide, 48 hours, n = 1
Source text: as §3

EGFR = experiment: Immunofluorescence of EGFR in MDA-MB-231 cells; assay type: cell-based, human; details: 50 μM, 72 hours
Experimental: (§5) 1×10^4 MDA-MB-231 cells were seeded onto coverslips in 12 well plates with DMEM media. Cells were treated with 50 μM P1, P2, P3 or P4 (synthesized in accordance with Example 5) or vehicle (water) for 72 hours. Cells were fixed with 3.7% formaldehyde and permeabilized with 2% Triton-X-100, then probed with primary mouse antibodies to CSV, DMNT1, H3K9me3 or 5-methylcytosine; primary goat antibodies to SNAI1, SETDB1 or ABCB5; or primary rabbit antibodies to PD-L1, EGFR, EHMT2; followed by the corresponding secondary antibody conjugated to anti-mouse Alexa-Fluor 568, anti-goat Alexa-Fluor 633 or anti-rabbit Alexa-Fluor 488. Confocal laser scanning microscopy was used to measure the TFI, TNFI and TCFI as described above. At least 20 individual cells were analyzed per sample.

H3K9me3 = experiment: Immunofluorescence of H3K9me3 in MDA-MB-231 cells; assay type: cell-based, human; details: 50 μM, 72 hours
Experimental: as §5

ABCBS = experiment: Immunofluorescence of ABCBS in MDA-MB-231 cells; assay type: cell-based, human; details: 50 μM, 72 hours
Experimental: as §5

5-methylcytosine = experiment: Immunofluorescence of 5-methylcytosine in MDA-MB-231 cells; assay type: cell-based, human; details: 50 μM, 72 hours
Experimental: as §5
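For COI, Live Single Cells (Cell Count) in this document: live means Hoechst-negative events among single cells.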

SMILES	PD-1 nuclear localization (PD-1)	Fn/c of acetylated PD-L1 [1]	total nuclear fluorescence intensity (TNFI) of acetylated PD-L1 [1]	colocalization of acetylated PD-L1 and p300 [2]	nuclear expression of PD-L1 (PD-L1)	Inhibition of CSCs (%) Repeat 1 [3] [%]	Inhibition of CSCs (%) Repeat 2 [3] [%]	Inhibition of CSCs (%) Repeat 3 [3] [%]	CD44^hiCD24^lo CSCs (%) [3] [%]	COI, Live Single CD44^hiCD24^lo CSCs (Cell Count) [3]	Average Inhibition of CSCs (%) [3] [%]	CD44^hiCD24^lo CSCs (%) Repeat 1 [3] [%]	CD44^hiCD24^lo CSCs (%) Repeat 2 [3] [%]	CD44^hiCD24^lo CSCs (%) Repeat 3 [3] [%]	expression / localization of EHTM2 (EHTM2)	expression / nuclear localization of DMNTI (DMNTI)	CSC inhibition (%) (induced MCF7 cells)	COI (Cell Count) (MDA-MB-231 cells)	COI, Live Single Cells (Cell Count) (MDA-MB-231 cells)	COI, Single (Cell Count) (MDA-MB-231 cells)	also measured
CCCCCCCCCCCCCC(=O)N[C@@H](CC(C)C)C(=O)N[C@H](C(=O)N[C@@H](Cc1ccccc1)C(=O)N[C@H](C(=O)N[C@@H](Cc1ccccc1)C(=O)N[C@@H](CCCNC(=N)N)C(=O)N[C@@H](CC(C)C)C(=O)N[C@@H](CCCNC(=N)N)C(=O)N[C@@H](CCCCN)C(=O)NCC(=O)N[C@@H](CCCNC(=N)N)C(=O)N[C@@H](CCSC)C(=O)N[C@@H](CCSC)C(=O)N[C@@H](CC(=O)O)C(=O)N[C@H](C(=O)N[C@@H](CCCCN)C(=O)N[C@@H](CCCCN)C(N)=O)C(C)C)[C@@H](C)CC)[C@@H](C)O [Peptide P1, Myristoyl-LTFIFRLRKGRMMDVKK-NH2] (Myristoyl-LTFIFRLRKGRMMDVKK-NH2)	significantly inhibited	significantly reduced	significantly reduced	significantly decreased	inhibited	93.33	89.97	90.28	15.77	220	91.19	5.98	9.00	8.72	significantly abrogated	significantly abrogated	38.10	2038	1395	1523	Total Cell Count (MDA-MB-231 cells): 4339; Viable Cells (%) (MDA-MB-231 cells): 91.60%; expression of EGFR (EGFR): uniformly inhibited
CCCCCCCCCCCCCC(=O)N[C@@H](CC(C)C)C(=O)N[C@H](C(=O)N[C@@H](Cc1ccccc1)C(=O)N[C@H](C(=O)N[C@@H](Cc1ccccc1)C(=O)N[C@@H](CCCNC(=N)N)C(=O)N[C@@H](CC(C)C)C(=O)N[C@@H](CCCNC(=N)N)C(=O)N[C@@H](CCC(N)=O)C(=O)NCC(=O)N[C@@H](CCCNC(=N)N)C(=O)N[C@@H](CCSC)C(=O)N[C@@H](CCSC)C(=O)N[C@@H](CC(=O)O)C(=O)N[C@H](C(=O)N[C@@H](CCCCN)C(=O)N[C@@H](CCCCN)C(N)=O)C(C)C)[C@@H](C)CC)[C@@H](C)O [Peptide P2, Myristoyl-LTFIFRLRQGRMMDVKK-NH2] (Myristoyl-LTFIFRLRQGRMMDVKK-NH2)	significantly inhibited	significantly reduced	significantly reduced	significantly decreased	inhibited	79.10	82.65	85.94	13.99	616	82.56	18.73	15.56	12.62	significantly abrogated	significantly abrogated	59.93	6317	4402	4580	Total Cell Count (MDA-MB-231 cells): 12706; Viable Cells (%) (MDA-MB-231 cells): 96.11%; expression of EGFR (EGFR): uniformly inhibited
CCCCCCCCCCCCCC(=O)N[C@@H](CC(C)C)C(=O)N[C@H](C(=O)N[C@@H](Cc1ccccc1)C(=O)N[C@H](C(=O)N[C@@H](Cc1ccccc1)C(=O)N[C@@H](CCCNC(=N)N)C(=O)N[C@@H](CC(C)C)C(=O)N[C@@H](CCCNC(=N)N)C(=O)N[C@@H](CCCCNC(C)=O)C(=O)NCC(=O)N[C@@H](CCCNC(=N)N)C(=O)N[C@@H](CCSC)C(=O)N[C@@H](CCSC)C(=O)N[C@@H](CC(=O)O)C(=O)N[C@H](C(=O)N[C@@H](CCCCN)C(=O)N[C@@H](CCCCN)C(N)=O)C(C)C)[C@@H](C)CC)[C@@H](C)O [Peptide P3, Myristoyl-LTFIFRLRK(Ac)GRMMDVKK-NH2] (Myristoyl-LTFIFRLRK(Ac)GRMMDVKK-NH2)	significantly inhibited	significantly reduced	significantly reduced	significantly decreased	inhibited	92.77	91.10	87.85	8.04	410	90.57	6.48	7.99	10.90	significantly abrogated	significantly abrogated	53.67	6874	5099	5237	expression of H3K9me3 (H3K9me3): strongly inhibited; expression of ABCBS (ABCBS): strongly inhibited; Total Cell Count (MDA-MB-231 cells): 20311; Viable Cells (%) (MDA-MB-231 cells): 97.36%; expression of EGFR (EGFR): uniformly inhibited; expression of 5-methylcytosine (5-methylcytosine): strongly inhibited
